What was measured:
Tritikale Sorte Prag 109 = experiment: Field test of pollen sterilisation, triticale Prag 109; format: in vivo; conditions: 2% aqueous emulsion, 12 kg/ha
Excerpt: (§1) Jedes Sterilisationsmittel wurde mindestens 5 Jahre lang geprüft.
(§2) Die Entwicklung der Perioden der Organogenese wird zytologischüberwacht. Die Behandlung von Pflanzen mit dem Sterilisationsmittel erfolgt am Anfang der fünften Periode der Organogenese nach Kupermann.
(§3) Mit dem Ahrenschiebe verwirklicht man die Isolierung von Hauptähren und anderen Stockwerken in Pergamentbeuteln. Bei Weizen und Tritikale werden Einzelisolatoren verwendet. Bei Roggen schliesst man je Ähre 5 bis 7 verschiedene nebeneinander befindliche Pflanzen unter einen gemeinsamen Isolator ein. Bei Hirse wird jede Rispe getrennt isoliert. Der Sterilitätsprozentsatz (X) für Weizen, Roggen, Tritikale und Hirse wird nach folgender Formel [formula] ermittelt.
(§4) Die Kornzahl in nicht isolierten ähren von Kontrollpflanzen wird bedingt für 100% Ansetzen bei freier Bestäubung angenommen.
(§5) Um zuverlässige Angaben zu erhalten, verwendet man 20 bis 25 Isolatoren jeder Wiederholung für Weisen und Tritikale, 10 bis 15 Gruppenisolatoren jeder Wiederholung für Roggen und Hirse.
V.Periode der Organogenese (nach Kupermann) mit einer 2%igen wässrigen Emulsion von N-(3-Dimethylaminopropyl) maleaminsäure, N-Karbamoylmaleaminsäure behandelt. Die Emulsion enthält 0,01 Masse% Tetrahydrofuran […] und 0,1 Masse% Kalziumalkylbenzolsulfonat mit 12 bis 14 Kohlensotffatomen. Der Verbrauch an Präparat beträgt 12 kg/ha. Als Kontrolle dienen Pflanzen, behandelt mit einem Verdünner ohne Sterilisationsmittel.

[1] = Toxicity test in animals (LD50); conditions: in vivo; animal test, per kg animal weight; species and route not given
Excerpt: Alle erfindungsgemässen N-substituierten Maleaminsäuren, welche als Sterilisationsmittel zur Verwendung kommen, waren auf die Toxizität im Tierversuch geprüft. Die Prüfergebnisse haben ergeben, dass die angegebenen Verbindungen von schwacher oder mittlerer Toxizität sind.

[2] = test system: Hirse Sorte Mironovskoe 94; experiment: Field test of pollen sterilisation, millet Mironovskoe 94; format: in vivo; conditions: 1% aqueous emulsion, 8 kg/ha
Excerpt: (§6) Die gametozide Aktivität der erfindungsgemässen Sterilisationsmittel war im Feldversuch in verschiedenen Bodenklimatischen Zonen mit Teilstücken von 10 m^2 Grösse in drei- bis viermaliger Wiederholung nachgewiesen. Jedes Sterilisationsmittel wurde mindestens 5 Jahre lang geprüft.
as §2, §3, §4, §5
Pflanzen der Hirse Sorte Mironovskoe 94 werden in der V. Periode der Organogenese (nach Kupermann) mit einer 1%igen wässrigen Emulsion von N-(2-Dimethylaminoäthyl)maleaminsäure, N-(3-Dimethylaminopropyl)maleaminsäure, N-Äthylmaleaminsäure, N-(2-Hydroxyäthyl)maleaminsäure, N-Karbamoylmaleaminsäure behandelt. Die Emulsion enthält 0,01 Masse% Dimethylaulfoxid und 0,1 Masse% Kalziumalkylbenzolsulfonat mit 12 bis 14 Kohlenstoffatomen. Der Verbrauch an Präparat beträgt 8 kg/ha. Als Kontrolle dienen Pflanzen, behandelt mit einem Verdünner ohne Sterilisationsmittel. Die Prüfergebnisse sind in der Tabelle 12 dargestellt. […] Periode der Organogenese erhalten.

[3] = test system: diploidem Roggen Sorte Voskhod 2; experiment: Field test of pollen sterilisation, diploid rye Voskhod 2; format: in vivo; conditions: 1% aqueous emulsion, 10 kg/ha
Excerpt: Die Emulsion enthält 0,1 Masse% Kalziumalkylbenzolsulfonat und 0,01 Masse% Dimethylformamid. Der Verbrauch an Präparat beträgt 10 kg/ha. Als Kontrolle dienen Pflanzen, behandelt mit einem Lösungsmittel ohne Sterilisationsmittel.

[4] = test system: tetraploidem Roggen Sorte Belta; experiment: Field test of pollen sterilisation, tetraploid rye Belta; format: in vivo; conditions: 1% aqueous emulsion, 10 kg/ha
Excerpt: as §6, §2, §3, §4, §5
Pflanzen von tetraploidem Roggen Sorte Belta werden in der V. Periode der Organogenese (nach Kupermann) mit einer 1%igen wässrigen Emulsion von N-(2-Dimethylamino- .äthyl)maleaminsäure, N-(3-Dimethylaminopropyl)maleaminsäure, N-Äthylmaleaminsäure, N-(2-Hydroxyäthyl)maleaminsäure bzw. Karbamoylmaleaminsäure behandelt. Die Emulsion enthält 0,5 Masse% Kalziumalkylbenzolsulfonat mit 12 bis 14 Kohlenstoffatomen und 0,01 Masso% Tetrahydrofuran. Der Verbrauch an Präparat beträgt 10 kg/ha. Die Prüfergebnisse sind in der Tabelle 5 dargestellt. […] Periode der Organogenese erhalten.

[5] = test system: tetraploidem Roggen Sorte Ukrainskaya tetra; experiment: Field test of pollen sterilisation, tetraploid rye Ukrainskaya tetra; format: in vivo; conditions: 1% aqueous emulsion, 6 kg/ha
Excerpt: as §1, §2, §3, §4, §5
Pflanzen von tetraploidem Roggen Sorte Ukrainskaya tetra werden in der V. Periode der Organogenese (nach Kupermann) mit einer 1%igen wässrigen Emulsion von N-(2-Dimethylaminoäthyl)maleaminsäure, N-(3-Dimethyl-aminopropu)maleaminsäure bzw. N-Karbamoylmaleaminsäure behandelt. Die Emulsion enthält 0,1 Masse% Kaliumalkylbenzolsulfonat mit 12 bis 14 Kohlenstoffatomen und 0,01 Masse% Dodezylsulfat. Der Verbrauch an Präparat beträgt 6 kg/ha. Als Kontrolle dienen Pflanzen, behandelt mit einem Verdünner ohne Sterilisationsmittel. Die Prüfergebnisse sind in der Tabelle 6 dargestellt.

[6] = test system: Winterweizens Sorte Mir.onovskaya 808; experiment: Field test of pollen sterilisation (gametocidal activity), winter wheat Mironovskaya 808; format: in vivo, Winterweizen; conditions: 2% aqueous emulsion, 20 kg/ha
Excerpt: Als Emulgierungsmittel wird 0,1 Masse% Kalziumalkylbenzolsulfonat mit 12 bis 14 Kohlenstoffatomen hinzugefügt. Als Adjuvans fährt man in die Emulsion 0,01 Masse% Dimethylsulfoxid ein. Der Verbrauch an Präparat beträgt 20 kg/ha. Als Kontrolle dienen Pflanzen, behandelt mit einem Verdünner ohne Sterilisationsmittel.

[7] = test system: Winterweizens Sorte Bezostaya 1; experiment: Field test of pollen sterilisation, winter wheat Bezostaya 1; format: in vivo, Winterweizen; conditions: 2% aqueous emulsion, 16 kg/ha
Excerpt: Pflanzen des Winterweizens Sorte Bezostaya 1 werden in der V. Periode der Organogenese durch Zerstäubung einer 2%igen wässrigen Emulsion von N-(2-Dimethylaminoäthyl)-maleaminsäure, N-(3-Dimethylaminopropyl)-maleaminsäure, N-Äthylmaleaminsäure, N-(2-Hydroxyäthyl)-maleaminsäure, N-Karbamoylmaleaminsäure mit Hilfe deiner Rückspritze behandelt. Die Emulsion enthält 0,1 Masse% Kalziumalkylbenzolsulfonat mit 12 bis 14 Kohlenstoffatomen. Als Adjuvans führt man in die Emulsion 0,01 Masse% Tetrahydrofuran ein.
Der Verbrauch an Präparat beträgt 16 kg/ha. Als Kontrolle dienen Pflanzen, behandelt mit einem Verdünner ohne Sterilisationsmitteln.

[8] = test system: Sommerweizens Sorte Moskovskaya 35; experiment: Field test of pollen sterilisation, spring wheat Moskovskaya 35; format: in vivo, Sommerweizen; conditions: 1% aqueous emulsion, 10 kg/ha
Excerpt: Pflanzen des Sommerweizens Sorte Moskovskaya 35 werden in V. Periode der Organogenese (nach Kupermann) mit einer 1%igen wässrigen Emulsion von N-(2-Dimethyl-aminoäthyl)-maleaminsäure, N-(3-Dimethylaminopropyl)-maleaminsäure, N-Äthylmaleaminsäure, N-(2-Hydroxyäthyl) maleaminsäure bzw. N-Karbamoylmaleaminsäure behandelt. Die Emulsion enthält 0,5 Masse% Kalziumalkylbenzolsulfonat mit 12 bis 14 Kohlenstoffatomen als Emulgierungsmittel und 0,01 Masse% Dimethylformamid als Adjuvans. Der Verbrauch an Präparat beträgt 10 kg/ha. Als Kontrolle dienen Pflanzen, behandelt mit einem Verdünner ohne Sterilisationsmittel.

[9] = test system: diploidem Roggen Sorte Chulpan; experiment: Field test of pollen sterilisation, diploid rye Chulpan; format: in vivo; conditions: 1% aqueous emulsion, 8 kg/ha
Excerpt: (§7) Mit dem Ahrenschiebe verwirklicht man die Isolierung von Hauptähren und anderen Stockwerken in Pergamentbeuteln. […] Bei Roggen schliesst man je Ähre 5 bis 7 verschiedene nebeneinander befindliche Pflanzen unter einen gemeinsamen Isolator ein. […] Der Sterilitätsprozentsatz (X) für Weizen, Roggen, Tritikale und Hirse wird nach folgender Formel [formula] ermittelt.
Die Emulsion enthält 0,01 Masse% Tetranydrofuran und 0,1 Masse% Kalziumalkylbenzolsulfonat mit 12 bis 14 Kohlenstoffatomen. Der Verbrauch an Präparat beträgt 8 kg/ha. Als Kontrolle dienen Pflanzen, behandelt mit einem Verdünner ohne Sterilisationsmittel.

[10] = test system: Sommerweizens Sorte Botanicheskaya 4; experiment: Field test of pollen sterilisation, spring wheat Botanicheskaya 4; format: in vivo, Sommerweizen; conditions: 1% aqueous emulsion, 6 kg/ha
[11] = test system: diploidem Roggen Sorte Talovskaya 12; experiment: Field test of pollen sterilisation, diploid rye Talovskaya 12; format: in vivo; conditions: 1% aqueous emulsion, 6 kg/ha
Excerpt: as §7
Pflanzen von diploidem Roggen Sorte Talovskaya 12 werden in der V. Periode der Organogenese (nach Kupermann) mit einer 1%igen wässrigen Emulsion von N-(2-Di- methylaminoäthyl)-maleaminsäure, N-(3-Dimethylaminopropyl)-maleaminsäure, N-Äthylmaleaminsäure, N-(2-Hydroxyäthyl)maleaminsäure, N-Karbamoylmaleaminsäure behandelt. Die Emulsion enthält 0,01 Masse% Dodezylsulfat und 0,1 Masse% Kalziumalkylbenzolsulfonat mit 12 bis _14 Kohlenstoffatomen. Der Verbrauch an Präparat beträgt 6 kg/ha. Als Kontrolle dienen Pflanzen, behandelt mit einem Verdünner ohne Sterilisationsmittel.

[12] = test system: Sonneblume Sorte Peredovik; experiment: Field test of pollen sterilisation, sunflower variety Peredovik; format: in vivo, Sonnenblume; conditions: period V, 0.5% emulsion
Excerpt: as §6, §2
Zur Kontrolle der chemischen Sterilisation des Sonnenblumenpollens werden für jede Verbindung 45 behandelte Pflanzen jeder Wiederholung benutzt, wobei 15 Pflanzen von denen zwecks Selbstbestäurun^g des Blütenkörbchens isoliert werden, 15 andere Pflanzen mit einem Pollengemisch, gesammelt von 20 bis 25 behandelten isolierten Körbchen, bestäubt werden und 15 Pflanzen für freie Bestäubeung gelassen werden, damit das Ansetzen von Ächänen mit dem Pollen der Vaterform kontrolliert werden kann.
Man beurteilt die Pollensterilität von Pflanzen der Sonnenblume nach der Pollenfertilität und -keimfähigkeit, nach den morphologischen Besonderheiten von Spermien und nach der Fähigkeit von Achänen zum Ansetzen bei der Bestäubung der behandelten isolierten Pflanzen mit dem Pollen der unbehandelten väterlichen Form. Die Lebensfähigkeit der Eizelle wird nach der Samenbildung von behandelten Pflanzen bei freier Bestäubung der väterlichen Form ermittelt.
Pflanzen der Sonneblume Sorte Peredovik und Linie BK-119 werden in der V. Periode der Organogenese (nach Kupermann) mit einer 0,5%igen wässrigen Emulsion der N-Karbamoylmaleaminsäure behandelt. Die Emulsion enthält 0,01 Masse% Dimethylsulfoxid und 0,1 Masse% Kalziumalkylbenzolsulfonat mit 12 bis 14 Kohlenstoffatomen. Der Verbrauch an Präparat beträgt 3 kg/ha. Die gleichen Pflanzen werden mit einer 0,1masseprozentigen wässrigen Emulsion der N-(3-Dimethylaminopropyl)-maleaminsäure behandelt. Im letzten Falle enthält die Emulsion 0,01 Masse% Dodezylsulfat und 0,1 Masse% Kalziumalkylbenolsulfonat mit 12 bis 14 Kohlensotffatomen. Der Verbrauch an Präparat beträgt 1 kg/ha. Als Kontrolle dienen Pflanzen, behandelt mit einem Verdünner.ohne Sterilisationsmittel. Die Prufergenisse sind in der Tabelle 14 dargestellt. […] Periode der Organogenese erhalten.

[13] = period V of organogenesis, free pollination
[14] = period V of organogenesis, isolated ears
[15] = period V, non-isolated control ears = 100%

Compound: NC(=O)NC(=O)/C=C\C(=O)O [Beispiel 5, N-Karbamoylmaleaminsäure]
- Prozentsatz der Sterilität (Tritikale Sorte Prag 109; period V of organogenesis): 100,0%
- Anzahl von Körnern der Ähre bei freier Bestäubung (Tritikale Sorte Prag 109; [13]): 39,6
- Anzahl von Körnern der Ähre im Isolator (Tritikale Sorte Prag 109; [14]): 0,0
- Prozentsatz des Ansetzens von Körnern bei freier Bestäubung (Tritikale Sorte Prag 109; [15]): 86,5%
- LD50 [1]: 2000 mg/kg
- Prozentsatz der Sterilität ([2]; period V of organogenesis): 100,0%
- Anzahl von Körnern der Rispe bei freier Bestäubung [2, 13]: 198,2
- Anzahl von Körnern der Rispe im Isolator ([2]; period V of organogenesis, isolated panicles): 0,0
- Prozentsatz des Ansetzens von Körnern bei freier Bestäubung ([2]; period V, non-isolated control = 100%): 87,2%
- Prozentsatz der Sterilität ([3]; period V of organogenesis): 98,2%
- Anzahl von Körnern der Ähre bei freier Bestäubung [3, 13]: 51,7
- Anzahl von Körnern der Ähre im Isolator [3, 14]: 0,9
- Prozentsatz des Ansetzens von Körnern bei freier Bestäubung [3, 15]: 93,7%
- Prozentsatz der Sterilität ([4]; period V of organogenesis): 100,0%
- Anzahl von Körnern der Ähre bei freier Bestäubung [4, 13]: 47,8
- Anzahl von Körnern der Ähre im Isolator [4, 14]: 0,0
- Prozentsatz des Ansetzens von Körnern bei freier Bestäubung [4, 15]: 87,2%
- Prozentsatz der Sterilität ([5]; period V of organogenesis): 99,4%
- Anzahl von Körnern der Ähre bei freier Bestäubung [5, 13]: 44,0
- Anzahl von Körnern der Ähre im Isolator [5, 14]: 0,2
- Prozentsatz des Ansetzens von Körnern bei freier Bestäubung [5, 15]: 98,2%
- Prozentsatz der Sterilität ([6]; period V of organogenesis): 100,0%
- Anzahl von Körnern der Ähre bei freier Bestäubung [6, 13]: 40,0
- Anzahl von Körnern der Ähre im Isolator [6, 14]: 0,0
- Prozentsatz des Ansetzens von Körnern bei freier Bestäubung [6, 15]: 93,9%
- Prozentsatz der Sterilität ([7]; period V of organogenesis): 97,8%
- Anzahl von Körnern der Ähre bei freier Bestäubung [7, 13]: 41,8
- Anzahl von Körnern der Ähre im Isolator [7, 14]: 0,7
- Prozentsatz des Ansetzens von Körnern bei breier Bestäubung [7, 15]: 97,4%
- Prozentsatz der Sterilität ([8]; period V of organogenesis): 100,0%
- Anzahl von Körnern der Ähre bei freier Bestäubung [8, 13]: 27,2
- Anzahl von Körnern der Ähre im Isolator [8, 14]: 0,0
- Prozentsatz des Ansetzens von Körnern bei freier Bestäubung [8, 15]: 98,9%
- Prozentsatz der Sterilität ([9]; period V of organogenesis): 100,0%
- Anzahl von Körnern der Ähre bei freier Bestäubung [9, 13]: 48,7
- Anzahl von Körnern der Ähre im Isolator [9, 14]: 0,0
- Prozentsatz des Ansetzens von Körnern bei freier Bestäubung [9, 15]: 85,7%
- Prozentsatz der Sterilität ([10]; period V of organogenesis): 100,0%
- Anzahl von Körnern der Ähre bei freier Bestäubung [10, 13]: 27,1
- Anzahl von Körnern der Ähre im Isolator [10, 14]: 0,0
- Prozentsatz des Ansetzens von Körnern bei freier Bestäubung [10, 15]: 90,0%
- Prozentsatz der Sterilität ([11]; period V of organogenesis): 100,0%
- Anzahl von Körnern der Ähre bei freier Bestäubung [11, 13]: 48,9
- Anzahl von Körnern der Ähre im Isolator [11, 14]: 0,0
- Prozentsatz des Ansetzens von Körnern bei freier Bestäubung [11, 15]: 87,0%

Compound: NC(=O)NC(=O)/C=C\C(=O)O [Beispiel 59, N-Karbamoylmaleaminsäure]
- Prozentsatz der Sterilität ([12]; 3 kg/ha (N-Karbamoylmaleaminsäure) or 0.1% emulsion, 1 kg/ha (N-(3-Dimethylaminopropyl)-maleaminsäure)): 100,0%
- Ansetzen von Ächänen bei freier Bestäubung in % ([12]; 3 kg/ha or 0.1% emulsion, 1 kg/ha, free pollination): 81,7%

— patent EP0374249A1, “METHOD OF STERILIZING PLANT POLLEN” (VSESOJUZNY NAUCHNO-ISSLEDOVATELSKY INST. SELSKOKHOZYAISTV. …, priority 1988, dated 1989)
